The results in this text go back to ChEMBL document CHEMBL1149662, “Design and synthesis of a library of tertiary amides: evaluation as mimetics of the melanocortins' active core” (Bioorg Med Chem, 2007).

In general, Ki refers to the equilibrium dissociation constant of an inhibitor or competing ligand from its target.

The target in assay [1] is T1, Melanocortin receptor 5 (Homo sapiens, UniProt P33032). The assay is described as follows: Displacement of [125I]NDP-MSH from human recombinant MC5 receptor expressed in Sf9 cells.
Assay [2] in a line: Selectivity for mouse MC1 receptor over human MC3 receptor.
Assay [3] addresses T2, Melanocortin receptor 3 (Homo sapiens, UniProt P41968). Briefly: Displacement of [125I]NDP-MSH from human recombinant MC3 receptor expressed in Sf9 cells. (In a radioligand displacement assay an active substance lowers the binding of a labelled ligand.)
Assay [4] concerns the target T3, Melanocortin receptor 4 (Homo sapiens, UniProt P32245). Briefly: Displacement of [125I]NDP-MSH from human recombinant MC4 receptor expressed in Sf9 cells.
Assay [5] deals with T4, Melanocyte-stimulating hormone receptor (Mus musculus, UniProt Q01727). Briefly: Displacement of [125I]NDP-MSH from MC1 receptor in mouse B16 cells. Format: cell-based.
Assay [6] can be described thus: Selectivity for mouse MC1 receptor over human MC4 receptor.
Assay [7] in a line: Selectivity for mouse MC1 receptor over human MC5 receptor.
Assay [8] has as its target T1, Melanocortin receptor 5. The assay is described as follows: Displacement of [125I]NDP-MSH from human recombinant MC5 receptor expressed in Sf9 cells up to 1 mM.
The target in assay [9] is T2, Melanocortin receptor 3. The assay is described as follows: Displacement of [125I]NDP-MSH from human recombinant MC3 receptor expressed in Sf9 cells up to 1 mM.
Assay [10] deals with T4, Melanocyte-stimulating hormone receptor. The assay is described as follows: Displacement of [125I]NDP-MSH from MC1 receptor in mouse B16 cells up to 1 mM. Format: cell-based.
The target of assay [11] is T3, Melanocortin receptor 4. Briefly: Displacement of [125I]NDP-MSH from human recombinant MC4 receptor expressed in Sf9 cells up to 1 mM.
The target of assay [12] is T1, Melanocortin receptor 5. The assay is described as follows: Antagonist activity at MC5 receptor expressed in COS1 cells assessed as inhibition of alpha-MSH-induced cAMP accumulation at 100 uM. Format: functional, cell-based. The conditions noted are these: COS-1. For orientation: Changes in cAMP serve as a functional read-out for many G protein-coupled receptors.

The target of assay [13] is T3, Melanocortin receptor 4. Briefly: Antagonist activity at MC4 receptor expressed in COS1 cells assessed as inhibition of alpha-MSH-induced cAMP accumulation at 100 uM. Format: functional, cell-based. The note with it: COS-1.
For assay [14], the target named is Melanocyte-stimulating hormone receptor (Mus musculus) (UniProt Q01727). The assay is described as follows: Antagonist activity MC1 receptor in mouse B16 cells assessed as inhibition of alpha-MSH-induced cAMP accumulation at 100 uM. Format: functional, cell-based.
Assay [15] has as its target T2, Melanocortin receptor 3. Briefly: Antagonist activity at MC3 receptor expressed in COS1 cells assessed as inhibition of alpha-MSH-induced cAMP accumulation at 100 uM. The conditions noted are these: COS-1. Format: functional, cell-based.

Structures are written as SMILES. Activity calls are given as the source filed them. The calls are words filed in the database; no cut-off is given here.

T2 sequence (P41968 whole entry): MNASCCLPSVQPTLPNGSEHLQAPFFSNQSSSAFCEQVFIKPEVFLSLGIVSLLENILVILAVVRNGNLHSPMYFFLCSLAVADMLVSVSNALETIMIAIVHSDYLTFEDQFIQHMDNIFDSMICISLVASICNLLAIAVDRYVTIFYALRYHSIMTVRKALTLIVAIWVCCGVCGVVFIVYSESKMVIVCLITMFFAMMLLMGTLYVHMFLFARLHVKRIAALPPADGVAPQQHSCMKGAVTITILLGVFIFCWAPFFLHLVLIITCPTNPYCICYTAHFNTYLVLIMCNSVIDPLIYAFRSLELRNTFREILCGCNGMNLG
T4 sequence (Q01727 whole entry): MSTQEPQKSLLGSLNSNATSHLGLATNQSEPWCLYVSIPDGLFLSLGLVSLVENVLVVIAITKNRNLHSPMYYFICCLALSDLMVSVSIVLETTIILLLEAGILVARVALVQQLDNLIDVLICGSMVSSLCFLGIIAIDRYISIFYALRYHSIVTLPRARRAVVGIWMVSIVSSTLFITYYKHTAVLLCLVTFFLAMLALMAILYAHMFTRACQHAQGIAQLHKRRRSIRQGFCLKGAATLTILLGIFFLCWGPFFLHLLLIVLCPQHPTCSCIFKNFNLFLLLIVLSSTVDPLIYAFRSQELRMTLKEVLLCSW
T3 sequence (P32245 whole entry): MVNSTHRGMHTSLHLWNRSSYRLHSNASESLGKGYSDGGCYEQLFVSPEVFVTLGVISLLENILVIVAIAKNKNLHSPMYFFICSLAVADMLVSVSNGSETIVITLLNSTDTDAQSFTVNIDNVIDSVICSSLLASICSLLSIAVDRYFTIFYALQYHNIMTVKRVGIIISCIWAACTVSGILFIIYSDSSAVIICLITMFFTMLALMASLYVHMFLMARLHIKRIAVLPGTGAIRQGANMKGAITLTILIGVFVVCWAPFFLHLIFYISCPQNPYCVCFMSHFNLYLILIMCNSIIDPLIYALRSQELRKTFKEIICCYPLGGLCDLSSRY
T1 sequence (P33032 whole entry): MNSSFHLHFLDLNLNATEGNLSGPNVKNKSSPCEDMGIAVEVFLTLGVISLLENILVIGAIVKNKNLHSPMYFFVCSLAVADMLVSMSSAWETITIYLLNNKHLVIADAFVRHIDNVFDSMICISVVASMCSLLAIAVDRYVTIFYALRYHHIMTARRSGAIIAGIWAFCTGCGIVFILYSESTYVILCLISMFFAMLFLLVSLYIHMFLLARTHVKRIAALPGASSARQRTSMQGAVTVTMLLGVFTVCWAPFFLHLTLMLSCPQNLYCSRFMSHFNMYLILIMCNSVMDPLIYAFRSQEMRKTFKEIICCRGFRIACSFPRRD
Chain of Melanocyte-stimulating hormone receptor (Mus musculus) (Q01727 whole entry, looked up): as the sequence (Q01727 whole entry) above

Regarding `NCCCN(C(=O)Cc1c[nH]c2ccccc12)C1CCc2ccccc2C1` (centres undefined), the Ki on Melanocortin receptor 5 [1] worked out at 25 µM; on Melanocortin receptor 3 [3] it was 37 µM; at Melanocortin receptor 4 [4], 33 µM; in [5], 2.4 µM. For the same compound, the Ratio in [2], in assay [6] and in assay [7] was 10 throughout.
Consider `NCCN(C(=O)Cc1ccc2ccccc2c1)C1CCc2ccccc2C1` (centres undefined), for which the Ki on Melanocortin receptor 5 [1] was determined as 25 µM; on Melanocortin receptor 3 [3] it was 29 µM; at Melanocortin receptor 4 [4] it was 27 µM; in [5], 1.6 µM. Also, the Ratio in [2], in assay [6] and in assay [7] was 10 in each case.
Consider `NCCCN(C/C=C/c1ccccc1)C(=O)Cc1c[nH]c2ccccc12`, for which the Ki result at Melanocortin receptor 5 [8] is “Not Active”; on Melanocortin receptor 3 [3], 21 µM; on Melanocortin receptor 4 [4] it was 26 µM; in [5], 6.4 µM.
For the compound `NCCCCCCCCN(C/C=C/c1ccccc1)C(=O)CCc1c[nH]c2ccccc12`, the inhibition constant (Ki) worked out at 40 µM on Melanocortin receptor 5 [1], 24 µM on Melanocortin receptor 3 [3], 17 µM on Melanocortin receptor 4 [4] and 1.2 µM in assay [5]. Besides, the Ratio in assay [2], in assay [6] and in assay [7] was 10 each time.
On to `NCc1cccc(CN(Cc2ccccc2)C(=O)CCCc2c[nH]c3ccccc23)c1`, for which the Ki on Melanocortin receptor 5 [1] came to 32 µM; at Melanocortin receptor 3 [3], 45 µM; at Melanocortin receptor 4 [4], 33 µM; in assay [5], 1.9 µM. For the same compound, the Ratio in [2], in [6] and in assay [7] was 10 throughout.
Take `NCCCCCN(Cc1ccccc1)C(=O)[C@H](N)Cc1ccccn1`: the Ki result (at Melanocortin receptor 5 [8]; on Melanocortin receptor 3 [9]; in assay [10]; on Melanocortin receptor 4 [11]) was “Not Active” in each case.
As for `NCCCCN(Cc1ccc2ccccc2c1)C(=O)Cc1c[nH]c2ccccc12`, the outcome (at Melanocortin receptor 5 [12]; on Melanocortin receptor 4 [13]; in assay [14]; on Melanocortin receptor 3 [15]) was Active. For the same compound, the Ki at Melanocortin receptor 5 [1] turned out to be 16 µM; at Melanocortin receptor 3 [3], 63 µM; on Melanocortin receptor 4 [4], 111 µM; in assay [5], 15 µM.
